In general, pIC50 refers to the IC50 on a negative log10 scale, so that one unit is a factor of ten. Read a low pIC50 as a high IC50.

pIC50: −log10 of the molar value.

The source of these data is ChEMBL document CHEMBL1135311, “N-Cycloalkanoyl-L-phenylalanine derivatives as VCAM/VLA-4 antagonists” (Bioorg Med Chem Lett, 2002).

Assay [1] deals with T1, Integrin alpha-4/beta-1 (Homo sapiens, UniProt P05556+P13612). Nature of the assay: Inhibitory binding concentration determined against VCAM/VLA-4 in ELISA. Format: protein-complex assay. For orientation: In an ELISA, binding on a coated surface is turned into a signal by an enzyme label.
Assay [2] deals with T1, Integrin alpha-4/beta-1. Put plainly: Inhibition of Very late antigen 4/vascular cell adhesion molecule 1 interaction in ELISA. Format: protein-complex assay.
Assay [3] has as its target T1, Integrin alpha-4/beta-1. Put plainly: Inhibitory binding concentration determined against VCAM/VLA-4 in Ramos. The assay is classed as protein-complex assay.
Assay [4] addresses T1, Integrin alpha-4/beta-1. Nature of the assay: Inhibition of Very late antigen 4 (VLA-4) of Ramos cell adhesion to vascular cell adhesion molecule 1 (VCAM-1). Format: cell-based.

T1 sequence (P05556 whole entry): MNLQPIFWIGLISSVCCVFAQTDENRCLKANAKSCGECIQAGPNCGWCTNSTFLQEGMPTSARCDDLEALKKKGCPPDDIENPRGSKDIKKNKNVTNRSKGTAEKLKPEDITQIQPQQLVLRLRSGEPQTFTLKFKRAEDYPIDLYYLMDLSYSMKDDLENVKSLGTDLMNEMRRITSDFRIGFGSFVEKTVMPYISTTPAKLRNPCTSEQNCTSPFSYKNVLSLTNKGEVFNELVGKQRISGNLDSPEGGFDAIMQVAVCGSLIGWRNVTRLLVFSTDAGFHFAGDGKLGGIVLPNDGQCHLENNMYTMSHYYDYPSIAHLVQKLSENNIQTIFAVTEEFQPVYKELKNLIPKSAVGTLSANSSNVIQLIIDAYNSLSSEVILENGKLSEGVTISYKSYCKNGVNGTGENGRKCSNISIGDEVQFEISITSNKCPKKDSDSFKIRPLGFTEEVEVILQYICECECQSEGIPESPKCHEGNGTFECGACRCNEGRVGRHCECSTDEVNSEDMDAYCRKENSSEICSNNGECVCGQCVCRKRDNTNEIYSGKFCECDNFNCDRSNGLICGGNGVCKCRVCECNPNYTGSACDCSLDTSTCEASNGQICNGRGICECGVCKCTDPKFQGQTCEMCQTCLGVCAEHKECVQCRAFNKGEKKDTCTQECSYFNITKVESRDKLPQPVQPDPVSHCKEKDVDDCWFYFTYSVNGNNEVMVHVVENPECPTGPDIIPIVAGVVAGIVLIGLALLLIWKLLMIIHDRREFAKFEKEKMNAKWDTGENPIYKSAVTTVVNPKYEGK
T1 sequence (P13612 whole entry): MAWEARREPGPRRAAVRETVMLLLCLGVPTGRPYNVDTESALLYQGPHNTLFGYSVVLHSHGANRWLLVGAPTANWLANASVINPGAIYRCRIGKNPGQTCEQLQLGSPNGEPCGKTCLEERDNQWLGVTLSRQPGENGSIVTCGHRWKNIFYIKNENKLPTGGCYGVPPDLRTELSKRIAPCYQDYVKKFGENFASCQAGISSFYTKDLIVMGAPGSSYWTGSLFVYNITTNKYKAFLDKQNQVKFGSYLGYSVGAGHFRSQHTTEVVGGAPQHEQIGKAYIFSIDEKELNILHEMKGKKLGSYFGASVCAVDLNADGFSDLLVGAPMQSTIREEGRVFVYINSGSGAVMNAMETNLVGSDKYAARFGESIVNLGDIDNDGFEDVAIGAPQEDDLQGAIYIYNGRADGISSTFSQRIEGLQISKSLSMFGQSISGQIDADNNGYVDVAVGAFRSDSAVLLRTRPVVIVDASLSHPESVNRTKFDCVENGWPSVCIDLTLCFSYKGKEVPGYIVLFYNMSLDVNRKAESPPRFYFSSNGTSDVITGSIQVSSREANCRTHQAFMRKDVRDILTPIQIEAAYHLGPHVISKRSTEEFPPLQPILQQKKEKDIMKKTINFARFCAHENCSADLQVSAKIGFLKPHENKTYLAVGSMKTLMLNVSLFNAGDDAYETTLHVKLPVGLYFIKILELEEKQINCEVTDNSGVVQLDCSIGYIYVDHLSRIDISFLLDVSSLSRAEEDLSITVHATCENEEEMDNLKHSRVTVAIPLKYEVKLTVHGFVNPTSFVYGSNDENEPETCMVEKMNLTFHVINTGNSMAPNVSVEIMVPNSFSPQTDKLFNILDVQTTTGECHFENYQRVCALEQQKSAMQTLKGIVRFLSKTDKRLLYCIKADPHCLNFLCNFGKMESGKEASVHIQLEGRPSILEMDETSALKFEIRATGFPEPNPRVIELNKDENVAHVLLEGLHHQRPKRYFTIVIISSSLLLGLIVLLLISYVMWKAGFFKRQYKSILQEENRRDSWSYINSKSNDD

On to `NC(=O)NCCC1(C(=O)N[C@@H](Cc2ccc(NC(=O)c3c(Cl)cccc3Cl)cc2)C(=O)O)CCCC1`, for which the pIC50 at Integrin alpha-4/beta-1 [1] is 9.34.

At Integrin alpha-4/beta-1 [2], `CSCCCCC1(C(=O)N[C@@H](Cc2ccc(NC(=O)c3c(Cl)cccc3Cl)cc2)C(=O)O)CCCC1` gave a pIC50 of 8.96.

Molecule `N#CCCCCC1(C(=O)N[C@@H](Cc2ccc(NC(=O)c3c(Cl)cccc3Cl)cc2)C(=O)O)CCCC1` had a pIC50 on Integrin alpha-4/beta-1 [1] of 9.28.

Take `Cn1nnnc1-c1cccc(CC2(C(=O)N[C@@H](Cc3ccc(NC(=O)c4c(Cl)cccc4Cl)cc3)C(=O)O)CCCC2)c1`: the negative-log IC50 (pIC50) is 7.00 on Integrin alpha-4/beta-1 [3] and 9.40 at Integrin alpha-4/beta-1 [1].

Consider `Cn1nnnc1-c1ccc(CC2(C(=O)N[C@@H](Cc3ccc(NC(=O)c4c(Cl)cccc4Cl)cc3)C(=O)O)CCCCC2)cc1`, for which the negative logarithm of the IC50 (pIC50) on Integrin alpha-4/beta-1 [3] was 7.21; at Integrin alpha-4/beta-1 [1], 8.89.

For the molecule `COCCCCC1(C(=O)N[C@@H](Cc2ccc(NC(=O)c3c(Cl)cccc3Cl)cc2)C(=O)O)CCCC1`, at Integrin alpha-4/beta-1 [3], the negative-log IC50 (pIC50) is 7.54.

Regarding `COCCC1(C(=O)N[C@@H](Cc2ccc(NC(=O)c3c(Cl)cccc3Cl)cc2)C(=O)O)CCCC1`, on Integrin alpha-4/beta-1 [3], the pIC50 is 7.92.

Regarding `COc1ccc(CC2(C(=O)N[C@@H](Cc3ccc(NC(=O)c4c(Cl)cccc4Cl)cc3)C(=O)O)CCCC2)cc1`, the figures for the pIC50 on Integrin alpha-4/beta-1 [3] and on Integrin alpha-4/beta-1 [1] were 7.43 and 9.22, respectively.

Regarding `O=C(Nc1ccc(C[C@H](NC(=O)C2(Cc3ccccc3)CCCC2)C(=O)O)cc1)c1c(Cl)cccc1Cl`, the negative-log IC50 (pIC50) at Integrin alpha-4/beta-1 [3] is 6.47; on Integrin alpha-4/beta-1 [1], 8.18.

In turn, `O=C(Nc1ccc(C[C@H](NC(=O)C2(c3ccccc3)CCCC2)C(=O)O)cc1)c1c(Cl)cccc1Cl` gave a pIC50 on Integrin alpha-4/beta-1 [1] of 8.77.

At Integrin alpha-4/beta-1 [3], `Cn1nnnc1-c1ccc(CC2(C(=O)N[C@@H](Cc3ccc(NC(=O)c4c(Cl)cccc4Cl)cc3)C(=O)O)CCCC2)cc1` had a negative logarithm of the IC50 (pIC50) of 7.72.

Turning to `CS(=O)(=O)CCCCC1(C(=O)N[C@@H](Cc2ccc(NC(=O)c3c(Cl)cccc3Cl)cc2)C(=O)O)CCCC1`, the pIC50 against Integrin alpha-4/beta-1 [2] was 9.82; against Integrin alpha-4/beta-1 [4], 8.10.

Consider `O=C(Nc1ccc(C[C@H](NC(=O)C2(Cc3ccccc3Cl)CCCC2)C(=O)O)cc1)c1c(Cl)cccc1Cl`, for which, at Integrin alpha-4/beta-1 [3], the negative logarithm of the IC50 (pIC50) was 6.46.

In the case of `COCC1(C(=O)N[C@@H](Cc2ccc(NC(=O)c3c(Cl)cccc3Cl)cc2)C(=O)O)CCCC1`, the negative logarithm of the IC50 (pIC50) at Integrin alpha-4/beta-1 [3] was 6.87; at Integrin alpha-4/beta-1 [1], 9.00.

With `CNC(=O)NCCC1(C(=O)N[C@@H](Cc2ccc(NC(=O)c3c(Cl)cccc3Cl)cc2)C(=O)O)CCCC1`, the figures for the negative logarithm of the IC50 (pIC50) at Integrin alpha-4/beta-1 [3] and on Integrin alpha-4/beta-1 [1] were 7.96 and 10.00, respectively.

`C=CCCC1(C(=O)N[C@@H](Cc2ccc(NC(=O)c3c(Cl)cccc3Cl)cc2)C(=O)O)CCCC1` had a negative-log IC50 (pIC50) on Integrin alpha-4/beta-1 [3] of 7.19.

With `[N-]=[N+]=NCCC1(C(=O)N[C@@H](Cc2ccc(NC(=O)c3c(Cl)cccc3Cl)cc2)C(=O)O)CCCC1`, the negative logarithm of the IC50 (pIC50) on Integrin alpha-4/beta-1 [1] was 9.28.

On Integrin alpha-4/beta-1 [2], `C[S+]([O-])CCC1(C(=O)N[C@@H](Cc2ccc(NC(=O)c3c(Cl)cccc3Cl)cc2)C(=O)O)CCCC1` (some centres undefined) showed a pIC50 of 9.68.

With `CS(=O)(=O)CCCC1(C(=O)N[C@@H](Cc2ccc(NC(=O)c3c(Cl)cccc3Cl)cc2)C(=O)O)CCCC1`, the negative logarithm of the IC50 (pIC50) against Integrin alpha-4/beta-1 [2] is 8.74; against Integrin alpha-4/beta-1 [4], 6.28.

For the molecule `CS(=O)(=O)CCCCC1(C(=O)N[C@@H](Cc2ccc(NC(=O)c3c(Cl)cccc3Cl)cc2)C(=O)O)CCC1`, the negative logarithm of the IC50 (pIC50) against Integrin alpha-4/beta-1 [2] was 10.00; against Integrin alpha-4/beta-1 [4], 8.22.

As to `COc1cccc(CC2(C(=O)N[C@@H](Cc3ccc(NC(=O)c4c(Cl)cccc4Cl)cc3)C(=O)O)CCCC2)c1`, the negative logarithm of the IC50 (pIC50) on Integrin alpha-4/beta-1 [3] was 6.77.

For `[N-]=[N+]=NCCCCC1(C(=O)N[C@@H](Cc2ccc(NC(=O)c3c(Cl)cccc3Cl)cc2)C(=O)O)CCCC1`, the figures for the negative-log IC50 (pIC50) at Integrin alpha-4/beta-1 [3] and at Integrin alpha-4/beta-1 [1] were 6.85 and 8.79, respectively.

Regarding `N#CCC1(C(=O)N[C@@H](Cc2ccc(NC(=O)c3c(Cl)cccc3Cl)cc2)C(=O)O)CCCC1`, the negative logarithm of the IC50 (pIC50) at Integrin alpha-4/beta-1 [1] was 8.96.

Turning to `COCCC1(C(=O)N[C@@H](Cc2ccc(NC(=O)c3c(Cl)cccc3Cl)cc2)C(=O)O)CCC1`, the pIC50 at Integrin alpha-4/beta-1 [3] is 7.77; at Integrin alpha-4/beta-1 [1], 9.21.

On to `CC(=O)CCCC1(C(=O)N[C@@H](Cc2ccc(NC(=O)c3c(Cl)cccc3Cl)cc2)C(=O)O)CCCC1`, for which the pIC50 at Integrin alpha-4/beta-1 [3] is 6.46; at Integrin alpha-4/beta-1 [1], 8.11.

Molecule `CS(=O)(=O)CCC1(C(=O)N[C@@H](Cc2ccc(NC(=O)c3c(Cl)cccc3Cl)cc2)C(=O)O)CCCC1` had a pIC50 at Integrin alpha-4/beta-1 [2] of 9.10.

In the case of `CN(C)CCC1(C(=O)N[C@@H](Cc2ccc(NC(=O)c3c(Cl)cccc3Cl)cc2)C(=O)O)CCCC1`, the negative logarithm of the IC50 (pIC50) on Integrin alpha-4/beta-1 [3] is 7.05; on Integrin alpha-4/beta-1 [1], 8.47.

As to `O=C(NCCC1(C(=O)N[C@@H](Cc2ccc(NC(=O)c3c(Cl)cccc3Cl)cc2)C(=O)O)CCCC1)Nc1ccccc1`, the pIC50 is 6.04 at Integrin alpha-4/beta-1 [3] and 8.24 at Integrin alpha-4/beta-1 [1].

`COc1ccc(CC2(C(=O)N[C@@H](Cc3ccc(NC(=O)c4c(Cl)cccc4Cl)cc3)C(=O)O)CCCC2)cc1OC`: the pIC50 on Integrin alpha-4/beta-1 [3] is 7.02; at Integrin alpha-4/beta-1 [1] it was 9.10.
